According to patent US20090076029A1 (Palatin Technologies, Inc., priority 2007, published 2009):
Several values for one entry are separate records, joined by “and”; a condition that tells them apart may be missing. Identical values can stand only once. Like-named read-outs stand apart in the source and are kept apart here.

Assays:
hMC4-R = system: T1, hMC4-R; assay: cAMP functional assay in HEK-293 cells expressing MC4-R (agonist, neutral antagonist/Schild); format: cell-based, human; conditions: for intrinsic activity at MC4-R: NDP-α-MSH maximal stimulation = 1.0; for pA2 value at MC4-R: Schild plot vs NDP-α-MSH; for functional status at MC4-R: mostly at 1 μM
T1 construct: expressed in transfected cells; host or cells: HEK-293
Procedure, shortened: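 Cells in EBSS/HEPES pH 7.5 with 0.3 mM IBMX, exposed to compound (0.05-5000 nM, 1% DMSO) for 1 h at 37 °C; cAMP by EIA, EC50 by nonlinear regression. Antagonism: 30 min compound pre-incubation, then 1 nM NDP-α-MSH for 1 h; Schild analysis over 0.005-5000 nM agonist gives pA2.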

MC4-R [1] = system: T2, MC4-R; format: cell-based
T2 construct: expressed in transfected cells; host or cells: HEK-293
Procedure: Antagonists of AgRP. […] The experimental protocol was essentially as described above for the antagonist assay. […] HEK-293 cells expressing MC4-R were suspended in 10 mM HEPES (pH 7.5) and Earle's Balanced Salt Solution with the phosphodiesterase inhibitor IBMX. The cells were pre-incubated for 30 minutes with the test compounds over a concentration of 0.5 nM to 5000 nM. The cells were then treated with AgRP (100 nM) and incubated for 1 hour. Cells were lysed and cAMP was measured using an EIA kit (Amersham).

MC4-R [2] = system: T2, MC4-R; format: cell-based; remark: listed apart in the source
Source text: Assay for Antagonists of AgRP in HEK-293/MC4-R Cells stimulated with Forskolin. […] AgRP causes a decrease in the basal adenylyl cyclase activity only to the extent of 40-50%. Even though the AgRP-induced decrease in cAMP levels is substantial, conventional assay methods, such as those described above, have limited sensitivity, precluding detecting small changes that are reversed by certain antagonists to AgRP. This limitation was circumvented by the use of a non-specific activator, forskolin, which directly activates adenylyl cyclase activity and raises cyclic AMP levels. Forskolin, a cell permeable diterpenoid initially isolated from Coleus forskohlii, has the ability to stimulate adenylyl cyclase activity and increase intracellular cAMP, thus activating cAMP-dependent protein kinase and other cAMP receptor proteins. See, e.g., Seamon, K. B., Daly, J. W. Forskolin: a unique diterpene activator of cyclic AMP-generating system. J. Cyclic Nucleotide Res. 7(4):201-24, 1981; Fradkin, J. E., Cook, G. H., Kilhoffer, M. C., Wolff, J. Forskolin stimulation of thyroid adenylate cyclase and cyclic 3′,5′-adenosine monophosphate accumulation. Endocrinology 111 (3):849-56, 1982; Barber, R., Goka, T. J. Adenylate cyclase activity as a function of forskolin concentration. J. Cyclic Nucleotide Protein Phosphor. Res. 10(1):23-9, 1985; and Laurenza, A., Sutkowski, E. M., Seamon, K. B. Forskolin: a specific stimulator of adenylyl cyclase or a diterpene with multiple sites of action? Trends Pharmacol. Sci. 10(11):442-7, 1989. […] The EC50 value was about 5 μM. AgRP inhibited the forskolin-induced response by 65% at a concentration of 10 nM. The difference in forskolin stimulated response and the inhibition due to AgRP in the cAMP levels was exploited to screen compounds for their ability to antagonize AgRP inhibition and […] levels of cAMP accumulation.
Experimental details for assays included incubating cells with the test compound in the presence of the inverse agonist AgRP with the extent of reversal of the AgRP effect measured by following the increase in the levels of intracellular cAMP. HEK-293 cells expressing MCR-4 were suspended in 10 mM HEPES/Earle's Balanced Salt Solution at pH 7.5 with the phosphodiesterase inhibitor IBMX, and pre-incubated for 30 minutes with the compounds (0.5-5000 nM). The cells were then treated with AgRP (10 nM) and incubated further for 30 minutes. The cells were then treated with forskolin (10 μM) and incubated for an additional 60 minutes. Cells were lysed and cAMP was measured by EIA kit (Amersham).

Compound: CC(C)C[C@@H]1CN(C(=O)[C@H](N)Cc2ccc(Cl)cc2Cl)[C@@H](CCCNC(=N)N)CN1CCc1ccc2ccccc2c1 [Example 4, N-{3-[1-[2(R)-Amino-3-(2,4-dichloro-phenyl)-propionyl]-5(R)-isobutyl-4-(2-naphthalen-2-yl-ethyl)-piperazin-2(S)-yl]-propyl}-guanidine]
- functional status (pAg, Ag, Antag, Inactive) (hMC4-R; MC4-R, Table 1): Antag (“Antag” means antagonist)
- intrinsic activity at MC4-R (hMC4-R): no intrinsic activity
- pA2 value at MC4-R (hMC4-R): 7.7
- functional status at MC4-R (hMC4-R; cAMP assay): antagonist
- activity on AgRP induced inverse agonism (MC4-R [1]): antagonistic activity

Compound: CC(=O)N[C@H](Cc1ccc(C)cc1C)C(=O)N1C[C@@H](C)N(CCc2ccc3ccccc3c2)C[C@@H]1CCCNC(=N)N [Example 26, N-{1(R)-(2,4-Dimethyl-benzyl)-2-[2(S)-(3-guanidino-propyl)-5(R)-methyl-4-(2-naphthalen-2-yl-ethyl)-piperazin-1-yl]-2-oxo-ethyl}-acetamide]
- functional status (pAg, Ag, Antag, Inactive) (hMC4-R; MC4-R, Table 1): Antag (“Antag” means antagonist)
- intrinsic activity at MC4-R (hMC4-R): no intrinsic activity
- pA2 value at MC4-R (hMC4-R): 8.3
- functional status at MC4-R (hMC4-R; cAMP assay): antagonist
- effect on AgRP inhibition of forskolin-stimulated cAMP levels (MC4-R [2]): reversal of AgRP inhibition

Compound: Cc1ccc(C[C@@H](N)C(=O)N2C[C@@H](C)N(CCc3ccc4ccccc4c3)C[C@@H]2CCCNC(=N)N)c(C)c1 [Example 28, N-{3-[1-[2(R)-Amino-3-(2,4-dimethyl-phenyl)-propionyl]-5(R)-methyl-4-(2-naphthalen-2-yl-ethyl)-piperazin-2(S)-yl]-propyl}-guanidine]
- functional status (pAg, Ag, Antag, Inactive) (hMC4-R; MC4-R, Table 1): pAg (“pAg” means partial agonist)
- EC50 (hMC4-R; MC4-R, Table 1, read-out: EC50): 390 nM
- intrinsic activity at MC4-R (hMC4-R): 0.16 and 0.2
- EC50 (hMC4-R; cAMP assay, read-out: EC50 (nM) at MC4-R): 321 nM
- effect on AgRP inhibition of forskolin-stimulated cAMP levels (MC4-R [2]): reversal of AgRP inhibition
